The values below come from US20120142623A1, “Compositions And Methods For Predicting Inhibitors Of Protein Targets” (priority 2006, published 2012).

Some targets named below: Tat (Human immunodeficiency virus type 1 group M subtype B, UniProt P04608); Integrase (Human immunodeficiency virus type 1 group M subtype B, UniProt P04585); Reverse transcriptase (Human immunodeficiency virus type 1 group M subtype B, UniProt P04585).
Assay [1] relates to plasmepsin enzyme target from the malarial parasite Plasmodium malariae. The note with it: complexes solved by x-ray diffraction (1msm, 2anl); cited from earlier work.
For a further assay, the target named is Protease (Human immunodeficiency virus type 1 group M subtype B, UniProt P04585). The note with it: HIV-1 target Protease; read-out: Inhibitory effect (uM), IC50, Protease; cited from earlier work.
For assay [2], the target named is T1, KSHV protease (Human herpesvirus 8 type P, UniProt Q2HRB6). The experiment in a line: Surface Plasmon Resonance, KSHV protease. The assay is classed as binding. Also on record: herpes simplex virus (HSV) proteases (including HSV2, VZV, EBV, CMV, and KSHV). The note with it: SPR, FIG. 4. How it is done:
(§1) Four inhibitors were evaluated; our top ranking one (TMPyP4) clearly binds to all three proteases as predicted. […] A third inhibitor, GW8510, predicted to bind fails (i.e., a misprediction). […] Our inhibitor prediction is completely consistent with the observed experimental data which is verified further by cell culture studies in FIG. 4 and compared to existing antiherpes drugs.

Assay [3] deals with chloroquine-sensitive strain 3D7 of P. falciparum. The experiment in a line: P. falciparum growth inhibition in culture, strain 3D7. The assay is classed as cell-based, Plasmodium falciparum.
The test system of assay [4] is chloroquine-resistant strain K1 of P. falciparum. Nature of the assay: P. falciparum growth inhibition in culture, strain K1. Type of assay: cell-based, Plasmodium falciparum.
In assay [5] the target is T2, CMV protease (Human cytomegalovirus, UniProt P16753). The experiment in a line: Surface Plasmon Resonance, CMV protease. The assay is classed as binding. Details: herpes simplex virus (HSV) proteases (including HSV2, VZV, EBV, CMV, and KSHV). The settings on record: SPR, FIG. 4. The procedure: as §1
T2 sequence (P16753 1-256): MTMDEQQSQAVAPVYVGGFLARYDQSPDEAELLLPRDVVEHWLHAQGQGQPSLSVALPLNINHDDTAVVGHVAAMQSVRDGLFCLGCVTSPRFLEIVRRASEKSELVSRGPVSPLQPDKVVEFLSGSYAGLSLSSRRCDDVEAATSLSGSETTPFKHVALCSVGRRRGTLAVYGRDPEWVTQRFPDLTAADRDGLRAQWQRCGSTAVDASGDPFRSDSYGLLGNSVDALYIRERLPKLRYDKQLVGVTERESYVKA
The target in the next assay is HSV protease. The experiment in a line: Surface Plasmon Resonance, HSV protease. Type of assay: binding. The settings on record: SPR, FIG. 4. How it is done:
as §1

The test system of a further assay is HIV-1. The note with it: HIV-1, target Unknown, cited from earlier work.
A further assay concerns the target Vpr (Human immunodeficiency virus type 1 group M subtype B, UniProt P12520). The settings on record: read-out: Inhibitory effect (uM), EC50, Vpr; HIV-1 target Vpr; cited from earlier work.
The subject of the next assay is gp41. The note with it: HIV-1 target gp41; read-out: Inhibitory effect (uM), IC50, gp41; cited from earlier work.
The next assay concerns the target T3, gp120 (Human immunodeficiency virus type 1 group M subtype B, UniProt P03375).
T3 construct: V3 region of HIV-1 envelope glycoprotein gp120 to galactosylceramide
The settings on record: read-out: Inhibitory effect (uM), ED50, gp120; HIV-1 target gp120; cited from earlier work.

The next assay deals with HSV-1 strain F. The experiment in a line: HSV-1 infection of Vero cells, virus titer. Type of assay: cell-based.
A further assay has as its system KSHV. Nature of the assay: KSHV inhibition, different assay, fold reduction. The assay is classed as cell-based. The settings on record: FIG. 5.
In assay [6] the target is T1, KSHV protease. The experiment in a line: Surface Plasmon Resonance (SPR), dissociation constant for KSHV protease. Type of assay: binding, Kaposi's sarcoma virus (KSHV). Details: KSHV protease Kd (uM). The text has this:
(§2) The first experimental verification of our computational predictions were with TMPyP4, the top ranking inhibitor predicted to bind to all known herpesvirus proteases (see FIG. 3). This is also the inhibitor that we have characterized most computationally and experimentally, so we focus primarily on this inhibitor. […] Traditional approaches to design an inhibitor against this molecule is likely to fail since it has an extremely shallow active site pocket. However, protease dimerisation is essential for protein function and our top ranking inhibitor not only fit around the active site (covering it) but also intercolated itself in the dimer interface. Our predicted mode of action was therefore two fold: covering the surface of the active site, and inhibition of dimerisation in a reversible manner (i.e., as dimers formed, our inhibitor would bind which would disrupt the dimer, resulting in the inhibitor binding weakly and likely released, which would lead to reformation of the dimer, and so on). FIG. 3 illustrates this mode of action. […] TMPyP4 is the only known compound that is capable of inhibiting all three classes of herpesviruses.
(§3) Four inhibitors were evaluated; our top ranking one (TMPyP4) clearly binds to all three proteases as predicted. […] A third inhibitor, GW8510, predicted to bind fails (i.e., a misprediction). […]

For assay [7], the target named is T2, CMV protease. Nature of the assay: Surface Plasmon Resonance (SPR), dissociation constant for CMV protease. Details: CMV protease Kd (uM). The assay is classed as binding.
Excerpt: as §2, §3

Assay [8] deals with herpesvirus lytic phase viral growth. Nature of the assay: Herpesvirus lytic phase viral growth in vitro. The assay is classed as cell-based. The settings on record: dose-dependent, starting at micromolar concentrations.
The next assay has as its system CMV. The experiment in a line: CMV infection of HFF cells, virus titer. The assay is classed as cell-based. The settings on record: FIG. 5.
The target of another assay is T4, HSV2 protease (Human herpesvirus 2, UniProt P89449).
T4 construct: HSV2 protease Kd (uM)
T4 sequence (P89449 1-247): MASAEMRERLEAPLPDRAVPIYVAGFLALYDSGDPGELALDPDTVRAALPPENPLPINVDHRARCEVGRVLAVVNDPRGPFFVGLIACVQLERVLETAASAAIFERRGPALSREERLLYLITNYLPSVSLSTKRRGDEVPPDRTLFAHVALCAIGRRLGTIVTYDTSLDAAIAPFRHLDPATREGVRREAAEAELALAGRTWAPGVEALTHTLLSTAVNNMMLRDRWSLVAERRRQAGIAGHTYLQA
The experiment in a line: Surface Plasmon Resonance (SPR), dissociation constant for HSV protease. Type of assay: binding, herpes simplex virus (HSV2).
Excerpt: as §2, §3

Setting [9] is: HIV-1 target Tat; read-out: Inhibitory effect (uM), IC50, Tat; cited from earlier work.
The mark [10] stands for this setting: HIV-1 target Integrase; read-out: Inhibitory effect (uM), IC50, Integrase; cited from earlier work.

Like-named read-outs stand apart in the source and are kept apart here.

Tat, sequence (P04608 whole entry): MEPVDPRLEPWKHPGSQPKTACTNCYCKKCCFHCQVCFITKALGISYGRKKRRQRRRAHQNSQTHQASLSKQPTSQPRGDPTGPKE
T1 sequence (Q2HRB6 1-230): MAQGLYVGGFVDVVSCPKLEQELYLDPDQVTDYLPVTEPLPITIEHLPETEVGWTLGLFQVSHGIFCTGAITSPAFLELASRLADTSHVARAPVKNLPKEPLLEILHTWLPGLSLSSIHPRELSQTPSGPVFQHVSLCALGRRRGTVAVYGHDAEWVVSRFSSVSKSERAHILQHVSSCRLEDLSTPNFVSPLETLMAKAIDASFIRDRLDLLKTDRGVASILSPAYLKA
Vpr, sequence (P12520 whole entry): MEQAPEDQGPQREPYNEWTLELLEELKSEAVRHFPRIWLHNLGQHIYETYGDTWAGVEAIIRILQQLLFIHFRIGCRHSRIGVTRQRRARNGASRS

As usually defined, the IC50 is the point on the concentration scale where inhibition reaches its midpoint. Turning to `CCN(CC)CCCC(C)Nc1ccnc2cc(Cl)ccc12` (stereo not shown) [Chloroquine], the IC50 was under 50 µM on Tat (read-out: Inhibitory effect (uM), IC50, Tat; HIV-1 target Tat; cited from earlier work); 5.14 µM at Integrase (read-out: Inhibitory effect (uM), IC50, Integrase; HIV-1 target Integrase; cited from earlier work); over 300 µM on Reverse transcriptase (read-out: Inhibitory effect (uM), IC50, Reverse transcriptase; HIV-1 target Reverse transcriptase; cited from earlier work).
For the compound `CN(C)c1ccc(O)c2c1C[C@H]1C[C@H]3[C@H](N(C)C)C(O)=C(C(N)=O)C(=O)[C@@]3(O)C(O)=C1C2=O` [Minocycline], the IC50 on Reverse transcriptase (HIV-1 target Reverse transcriptase; read-out: Inhibitory effect (uM), IC50, Reverse transcriptase; cited from earlier work) is 1200 µM.
With `CCC(C)c1c(O[C@H]2C[C@@H](O[C@H]3C[C@@H](O)[C@H](O)[C@@H](C)O3)[C@H](O)[C@@H](C)O2)cc2cc3c(c(O)c2c1O)C(=O)C(O[C@H]1C[C@@H](O[C@H]2C[C@@H](O[C@H]4C[C@@H](O[C@H]5C[C@@H](O)[C@H](O)[C@@H](C)O5)[C@H](O)[C@@H](C)O4)[C@@H](OC(C)=O)[C@@H](C)O2)[C@H](O)[C@@H](C)O1)C(C(OC)C(=O)C(O)C(C)O)C3` (stereo partly shown) [Durhamycin A], on Tat (setting [9]), the IC50 is 0.0048 µM.
For the compound `COc1cc(/C=C/C(=O)CC(=O)/C=C/c2ccc(O)c(OC)c2)ccc1O` [Curcumin], the 50% inhibitory concentration (IC50) on Tat (setting [9]) was under 30 µM.
In the case of `CCN(CCO)CCCC(C)Nc1ccnc2cc(Cl)ccc12` (stereo not shown) [Hydroxychloroquine], the IC50 at Integrase (setting [10]) is over 100 µM.
On to `Cc1ccccc1CNC(=O)[C@H]1N(C(=O)[C@@H](O)[C@H](Cc2ccccc2)NC(=O)c2cccc(O)c2C)CSC1(C)C` [KNI-764], for which, in assay [1], the “inhibition of HIV-1 protease and plasmepsin” value is “inhibits both HIV-1 protease and the plasmepsin enzyme target”. At Protease, the IC50 was over 0.05 µM.
As for `O=C1Nc2ccc3ncsc3c2/C1=C/Nc1ccc(S(=O)(=O)Nc2ccccn2)cc1` [GW8510], the “disassociation constant (Kd), KSHV protease” value at KSHV protease [2] is “fails”. The EC50 in assay [3] (Table 3 section A, mean of at least two measurements, read-out: ED50 in 3D7) is 1 to 10 µM; in [3] (Table 5, read-out: ED50 (μM) in 3D7), 1 to 10 µM; in assay [4] (Table 3 section A, mean of at least two measurements, read-out: ED50 in K1), 1 µM; in assay [4] (Table 5, read-out: ED50 (μM) in K1), 1 µM. Also, in assay [3] (Table 5, P. falciparum ED50 in 3D7 and K1), the “experimentally determined to work” value is “N”. The “disassociation constant (Kd), CMV protease” value on CMV protease [5] was “fails”. At HSV protease, the “disassociation constant (Kd), HSV protease” value was “fails”.
As to `CC(C)S(=O)(=O)n1c(N)nc2ccc(/C(=N/O)c3ccccc3)cc21` [Enviroxime], the EC50 in the assay on HIV-1 (read-out: Inhibitory effect (uM), EC50, target Unknown) was over 36.5 µM.
For `CO[C@@H]1[C@H](OC(=O)/C=C/C=C/C=C/C=C/C(=O)O)CC[C@]2(CO2)[C@H]1[C@@]1(C)O[C@@H]1CC=C(C)C` [Fumagillin], the EC50 is 0.015 µM at Vpr and over 0.2 µM with HIV-1 (printed EC, read-out: Inhibitory effect (uM), EC, target Unknown).
Consider Amphotericin B, for which, in the assay on gp41, the IC50 was over 10 µM.
Take `Cc1ccc(C(=O)Nc2ccc(S(=O)(=O)O)c3cc(S(=O)(=O)O)cc(S(=O)(=O)O)c23)cc1NC(=O)c1cccc(NC(=O)Nc2cccc(C(=O)Nc3cc(C(=O)Nc4ccc(S(=O)(=O)O)c5cc(S(=O)(=O)O)cc(S(=O)(=O)O)c45)ccc3C)c2)c1` [Suramin]: the IC50 at Integrase (setting [10]) was 2.4 µM. On gp120, the EC50 is 7.7 µM.
As a reminder, the Kd is the equilibrium constant for the complex coming apart. A low value points to tighter binding. Turning to `C[n+]1ccc(-c2c3nc(c(-c4cc[n+](C)cc4)c4ccc([nH]4)c(-c4cc[n+](C)cc4)c4nc(c(-c5cc[n+](C)cc5)c5ccc2[nH]5)C=C4)C=C3)cc1` [TMPyP4, meso-5,10,15,20-Tetrakis-(N-methyl-4-pyridyl)porphine tetratosylate], in the assay on HSV-1 strain F (FIG. 5 bottom left panel, virus not named), the “effect used together with acylovir” value was “almost completely eliminates all virus when used together”. Also, in the assay on HSV-1 strain F (FIG. 5 bottom right panel, virus not named), the “effectiveness after passage for several cycles with both acylovir and TMPyP4” value is “still continues to be effective”. Further, in the assay with HSV-1 strain F (Vero cells, HSV-1 strain F, FIG. 5), the “inhibition of HSV, virus titer” value is “comparably or better than existing antiherpes drugs”. The “disassociation constant (Kd), KSHV protease” value on KSHV protease [2] is reported as “micromolar range”. In addition, the “inhibition of KSHV” value in the assay on KSHV is “inhibited KSHV”. For the same compound, the dissociation constant Kd on KSHV protease [6] is 32.8 µM; on CMV protease [7], 36 µM; at HSV2 protease it was 40 µM. In addition, the EC50 in assay [3] (Plasmodium falciparum, 3D7, Table 3 section A, mean of at least two measurements, read-out: ED50 in 3D7) amounted to 1 µM; in [3] (Plasmodium falciparum, 3D7, Table 5, read-out: ED50 (μM) in 3D7), 1 µM; in [4] (Plasmodium falciparum, K1, Table 3 section A, mean of at least two measurements, read-out: ED50 in K1), 1 µM; in assay [4] (Plasmodium falciparum, K1, Table 5, read-out: ED50 (μM) in K1), 1 µM. Besides, the “result of the 16 tested inhibitors in words (binding)” value in assay [3] (summary of Table 5) is given as “moderate binding”. Also, the “disassociation constant (Kd), CMV protease” value on CMV protease [5] is recorded as “micromolar range”. For the same compound, the “inhibition of lytic phase viral growth” value in assay [8] is listed as 90%. The “inhibition of CMV, virus titer” value in the assay on CMV is “comparably or better than existing antiherpes drugs”. Moreover, the “disassociation constant (Kd), HSV protease” value at HSV protease is “micromolar range”.
